In patent publication US11992499B2, “Quinoline derivatives for use in the treatment of inflammation diseases” (ABIVAX, priority 2018, dated 2024):
“Also recorded” adds a separate entry of the source. Where two headings read alike, the source gives them in different places.

What was measured:
[1] = test system: STAM model of non-alcoholic steatohepatitis; type: in vivo; settings: for Liver weight (mean ± SD) / Liver-to-body weight ratio (mean ± SD): n = 8
Excerpt: To prepare dosing solution, Compound A and B were weighed and suspended in Vehicle which was composed of 20% of Vehicle-A1 and 80% of Vehicle-A2. Vehicle-A1 was composed of 0.5% (w/v) Carboxymethyl cellulose (CMC) 400-800 centipoises in water for injection+2.5% (w/v) Tween 80. Vehicle-A2 was composed of 0.5% (w/v) Carboxymethyl cellulose (CMC) 400-800 centipoises in water for injection. Telmisartan (Micardis®) was purchased from Boehringer Ingelheim GmbH (Germany) and dissolved in pure water.
(§1) NASH was induced in 48 male mice by a single subcutaneous injection of 200 μg streptozotocin (STZ, Sigma-Aldrich, USA) solution 2 days after birth and feeding with high fat diet (HFD, 57 kcal % fat, Cat #HFD32, CLEA Japan, Inc., Japan) after 4 weeks of age.
Compound A and B, and Telmisartan were administered orally in a volume of 10 mL/kg.
(§2) Compound A was administered at 3 dose levels of 10, 20 and 40 mg/kg once daily from 6 to 9 weeks of age. Compound B was administered at a dose of 40 mg/kg once daily from 6 to 9 weeks of age. Telmisartan was administered at a dose of 10 mg/kg once daily from 6 to 9 weeks of age.
C57BL/6 mice (14-day-pregnant female) were obtained from Japan SLC, Inc. (Japan). All animals used in the study were housed and cared for in accordance with the Japanese Pharmacological Society Guidelines for Animal Use.
Group 1: Vehicle Eight NASH mice were orally administered vehicle [20% of Vehicle-A1 and 80% of Vehicle-A2] in a volume of 10 mL/kg once daily from 6 to 9 weeks of age.
Eight NASH mice were orally administered vehicle supplemented with Compound A at a dose of 10 mg/kg once daily from 6 to 9 weeks of age.
Eight NASH mice were orally administered vehicle supplemented with Compound A at a dose of 20 mg/kg once daily from 6 to 9 weeks of age.
Eight NASH mice were orally administered vehicle supplemented with Compound A at a dose of 40 mg/kg once daily from 6 to 9 weeks of age.
Eight NASH mice were orally administered vehicle supplemented with Compound B at a dose of 40 mg/kg once daily from 6 to 9 weeks of age.
Eight NASH mice were orally administered pure water supplemented with Telmisartan at a dose of 10 mg/kg once daily from 6 to 9 weeks of age.
The viability, clinical signs and behavior were monitored daily. Body weight was recorded before the treatment. […] The animals were sacrificed at 9 weeks of age by exsanguination through direct cardiac puncture under isoflurane anesthesia (Pfizer Inc.).

[2] = test system: STAM model of non-alcoholic steatohepatitis; experiment: STAM model of NASH: F4/80 immunostaining; type: in vivo, mice; settings: for F4/80-positive area (mean ± SD): n = 8
Description: as §1, §2

[3] = test system: STAM model of non-alcoholic steatohepatitis; experiment: STAM model of NASH: HE staining and NAFLD Activity score; type: in vivo, mice; parameters: key to NAFLD Activity score (mean ± SD): NAFLD Activity score per Kleiner et al. 2005 criteria
Description: (§3) NASH was induced in 48 male mice by a single subcutaneous injection of 200 μg streptozotocin (STZ, Sigma-Aldrich, USA) solution 2 days after birth and feeding with high fat diet (HFD, 57 kcal % fat, Cat #HFD32, CLEA Japan, Inc., Japan) after 4 weeks of age. Compound A was administered at 3 dose levels of 10, 20 and 40 mg/kg once daily from 6 to 9 weeks of age. Compound B was administered at a dose of 40 mg/kg once daily from 6 to 9 weeks of age. Telmisartan was administered at a dose of 10 mg/kg once daily from 6 to 9 weeks of age. For HE staining, sections were cut from paraffin blocks of liver tissue prefixed in Bouin's solution and stained with Lillie-Mayer's Hematoxylin (Muto Pure Chemicals Co., Ltd., Japan) and eosin solution (FUJIFILM Wako Pure Chemical Corporation). NAFLD Activity score (NAS) was calculated according to the criteria of Kleiner (Kleiner D E. et al., Hepatology, 2005; 41:1313). To visualize collagen deposition, Bouin's fixed liver sections were stained using picro-Sirius red solution (Waldeck, Germany). For quantitative analysis of fibrosis area, bright field images of Sirius red-stained sections were captured around the central vein using a digital camera (DFC295; Leica, Germany) at 200-fold magnification, and the positive areas in 5 fields/section were measured using ImageJ software (National Institute of Health, USA).

[4] = test system: STAM model of non-alcoholic steatohepatitis; experiment: STAM model of NASH: liver triglyceride content; type: in vivo, mice; settings: for Liver triglyceride (mean ± SD): n = 8
Description: as §1, §2
Liver total lipid-extracts were obtained by Folch's method (Folch J. et al., J. Biol. Chem. 1957; 226: 497). Liver samples were homogenized in chloroform-methanol (2:1, v/v) and incubated overnight at room temperature. After washing with chloroform-methanol-water (8:4:3, v/v/v), the extracts were evaporated to dryness, and dissolved in isopropanol. Liver triglyceride content was measured by Triglyceride E-test (FUJIFILM Wako Pure Chemical Corporation, Japan).

[5] = test system: STAM model of non-alcoholic steatohepatitis; experiment: STAM model of NASH: plasma ALT; type: in vivo, mice; settings: for Plasma ALT (mean ± SD): n = 8
Description: NASH was induced in 48 male mice by a single subcutaneous injection of 200 μg streptozotocin (STZ, Sigma-Aldrich, USA) solution 2 days after birth and feeding with high fat diet (HFD, 57 kcal % fat, Cat #HFD32, CLEA Japan, Inc., Japan) after 4 weeks of age. Compound A was administered at 3 dose levels of 10, 20 and 40 mg/kg once daily from 6 to 9 weeks of age. Compound B was administered at a dose of 40 mg/kg once daily from 6 to 9 weeks of age. Telmisartan was administered at a dose of 10 mg/kg once daily from 6 to 9 weeks of age. For plasma biochemistry, non-fasting blood was collected in polypropylene tubes with anticoagulant (Novo-Heparin, Mochida Pharmaceutical Co. Ltd., Japan) and centrifuged at 1,000×g for 15 minutes at 4° C. The supernatant was collected and stored at −80° C. until use. Plasma ALT was measured by FUJI DRI-CHEM 7000 (Fujifilm, Japan).

[6] = test system: STAM model of non-alcoholic steatohepatitis; experiment: STAM model of NASH: Alpha-SMA immunostaining; type: in vivo, mice; settings: for Alpha-SMA-positive area (mean ± SD): n = 8
Description: NASH was induced in 48 male mice by a single subcutaneous injection of 200 μg streptozotocin (STZ, Sigma-Aldrich, USA) solution 2 days after birth and feeding with high fat diet (HFD, 57 kcal % fat, Cat #HFD32, CLEA Japan, Inc., Japan) after 4 weeks of age. Compound A was administered at 3 dose levels of 10, 20 and 40 mg/kg once daily from 6 to 9 weeks of age. Compound B was administered at a dose of 40 mg/kg once daily from 6 to 9 weeks of age. Telmisartan was administered at a dose of 10 mg/kg once daily from 6 to 9 weeks of age. […] (Table 9 herein after)

[7] = test system: STAM model of non-alcoholic steatohepatitis; experiment: STAM model of NASH: Sirius red staining, fibrosis area; type: in vivo, mice; settings: for Sirius red-positive area (fibrosis area, mean ± SD): n = 8
Description: as §3

[8] = 40 mg/kg PO QD (Compound A high, Compound B groups)
[9] = 40 mg/kg PO QD, 6-9 wks of age (Compound A high, Compound B groups)
[10] = 40 mg/kg PO QD, 6-9 wks of age (Compound A high, Compound B groups), n = 8
[11] = summary statement, dose not stated
[12] = 40 mg/kg PO QD (Compound B group)
[13] = 10 mg/kg PO QD (Compound A low, Telmisartan groups)
[14] = 10 mg/kg PO QD, 6-9 wks of age (Compound A low, Telmisartan groups)
[15] = 10 mg/kg PO QD, 6-9 wks of age (Compound A low, Telmisartan groups), n = 8
[16] = 10 mg/kg PO QD (Telmisartan group)

Q: How did the “Mean liver weight compared with the Vehicle group” value [1, 8] turn out when O=C(O)[C@H]1O[C@@H](N(c2ccc(OC(F)(F)F)cc2)c2ccc3cccc(Cl)c3n2)[C@H](O)[C@@H](O)[C@@H]1O [Compound B] was run?
A: tended to increase

Q: And the “Mean liver-to-body weight ratio compared with the Vehicle group” value [1, 8]?
A: tended to increase

Q: What about the “Liver weight (mean ± SD)” value [1, 9] of the same molecule?
A: 1606 ± 227 mg

Q: And the “Liver-to-body weight ratio (mean ± SD)” value [1, 9]?
A: 8.1 ± 1.1%

Q: And the “F4/80-positive area compared with the Vehicle group” value [2, 8]?
A: tended to decrease

Q: What about the “F4/80-positive area (mean ± SD)” value [2, 9] of the same molecule?
A: 1.90 ± 0.89%

Q: And the “NAS compared with the Vehicle group” value [3, 8]?
A: tended to decrease; also recorded: decreasing trend

Q: And the “Hepatocyte ballooning score 0 (None), number of mice” value [3, 10]?
A: 5

Q: And the “Hepatocyte ballooning score 1 (Few balloon cells), number of mice” value [3, 10]?
A: 2

Q: What about the “Hepatocyte ballooning score 2 (Many cells/prominent ballooning), number of mice” value [3, 10] of the same molecule?
A: 1

Q: And the “Lobular inflammation score 2 (2-4 foci/200×), number of mice” value [3, 10]?
A: 3

Q: And the “Lobular inflammation score 3 (>4 foci/200×), number of mice” value [3, 10]?
A: 5

Q: And the “NAFLD Activity score (mean ± SD)” value [3, 10]?
A: 3.6 ± 1.2

Q: What about the “Steatosis score 0 (<5%), number of mice” value [3, 10] of the same molecule?
A: 4

Q: What about the “Steatosis score 1 (5-33%), number of mice” value [3, 10] of the same molecule?
A: 4

Q: What about the “Overall effect in this NASH model” value ([3]; conclusion of the study) of the same molecule?
A: potential anti-NAS effect

Q: What about the “NAS compared with the Vehicle group” value [3, 11] of the same molecule?
A: decreasing trends

Q: What about the “Liver triglyceride content compared with the Vehicle group” value [4, 12] of the same molecule?
A: tended to increase; also recorded: increasing trends

Q: And the “Liver triglyceride (mean ± SD)” value [4, 9]?
A: 82.9 ± 32.6 mg/g liver

Q: And the “Plasma ALT level compared with the Vehicle group” value [5, 8]?
A: tended to increase; also recorded: increasing trends

Q: What about the “Plasma ALT (mean ± SD)” value [5, 9] of the same molecule?
A: 72 ± 24 U/L

Q: What about the “Alpha-SMA-positive area (mean ± SD)” value [6, 9] of the same molecule?
A: 1.17 ± 0.79%

Q: And the “Fibrosis area (Sirius red-positive area) compared with the Vehicle group” value [7, 12]?
A: tended to increase; also recorded: increasing trends

Q: And the “Sirius red-positive area (fibrosis area, mean ± SD)” value [7, 9]?
A: 0.94 ± 0.23%

Q: With CCCc1nc2c(C)cc(-c3nc4ccccc4n3C)cc2n1Cc1ccc(-c2ccccc2C(=O)O)cc1 [Telmisartan, reference compound] as the molecule, how does the “Mean liver weight compared with the Vehicle group” value [1, 13] read?
A: significant decrease

Q: What about the “Mean liver-to-body weight ratio compared with the Vehicle group” value [1, 13] of the same molecule?
A: tended to decrease

Q: And the “Liver weight (mean ± SD)” value [1, 14]?
A: 1115 ± 78 mg

Q: And the “Liver-to-body weight ratio (mean ± SD)” value [1, 14]?
A: 6.5 ± 0.4%

Q: What about the “F4/80-positive area (mean ± SD)” value [2, 14] of the same molecule?
A: 3.03 ± 0.95%

Q: And the “NAS compared with the Vehicle group” value [3, 13]?
A: significant decrease

Q: And the “Hepatocyte ballooning score 0 (None), number of mice” value [3, 15]?
A: 7

Q: And the “Hepatocyte ballooning score 1 (Few balloon cells), number of mice” value [3, 15]?
A: 1

Q: What about the “Lobular inflammation score 2 (2-4 foci/200×), number of mice” value [3, 15] of the same molecule?
A: 4

Q: And the “Lobular inflammation score 3 (>4 foci/200×), number of mice” value [3, 15]?
A: 4

Q: And the “NAFLD Activity score (mean ± SD)” value [3, 15]?
A: 2.8 ± 0.7

Q: And the “Steatosis score 0 (<5%), number of mice” value [3, 15]?
A: 7

Q: And the “Steatosis score 1 (5-33%), number of mice” value [3, 15]?
A: 1

Q: And the “Liver triglyceride content compared with the Vehicle group” value [4, 16]?
A: tended to decrease; also recorded: decreasing trend

Q: And the “Liver triglyceride (mean ± SD)” value [4, 14]?
A: 41.5 ± 16.9 mg/g liver

Q: And the “Plasma ALT level compared with the Vehicle group” value [5, 13]?
A: no significant difference

Q: And the “Plasma ALT (mean ± SD)” value [5, 14]?
A: 56 ± 14 U/L

Q: And the “Alpha-SMA-positive area compared with the Vehicle group” value [6, 16]?
A: tended to decrease

Q: What about the “Alpha-SMA-positive area (mean ± SD)” value [6, 14] of the same molecule?
A: 0.83 ± 0.26%

Q: What about the “Sirius red-positive area (fibrosis area, mean ± SD)” value [7, 14] of the same molecule?
A: 0.70 ± 0.13%

Q: O=C(O)[C@H]1O[C@@H](N(c2ccc(OC(F)(F)F)cc2)c2ccc3cccc(Cl)c3n2)[C@H](O)[C@@H](O)[C@@H]1O [drawing 253] was tested. Which “NAS compared with the Vehicle group” value [3, 11] did it give?
A: decreasing trend
